Columns and labels:
[1] = biological target: T1, recombinant human MMP-1 (Homo sapiens, UniProt P03956); assay: In vitro metalloprotease inhibition, fluorogenic peptide assay (MMP-1); assay type: biochemical; conditions: recombinant human MMP-1, APMA activated; fluorogenic MCA peptide substrate 4 uM; pH 7.5, room temperature
T1 construct: made in house; host or cells: transfected HT-1080 cells (provided by Dr. Howard Welgus, Washington University)
T1 sequence (P03956 100-469): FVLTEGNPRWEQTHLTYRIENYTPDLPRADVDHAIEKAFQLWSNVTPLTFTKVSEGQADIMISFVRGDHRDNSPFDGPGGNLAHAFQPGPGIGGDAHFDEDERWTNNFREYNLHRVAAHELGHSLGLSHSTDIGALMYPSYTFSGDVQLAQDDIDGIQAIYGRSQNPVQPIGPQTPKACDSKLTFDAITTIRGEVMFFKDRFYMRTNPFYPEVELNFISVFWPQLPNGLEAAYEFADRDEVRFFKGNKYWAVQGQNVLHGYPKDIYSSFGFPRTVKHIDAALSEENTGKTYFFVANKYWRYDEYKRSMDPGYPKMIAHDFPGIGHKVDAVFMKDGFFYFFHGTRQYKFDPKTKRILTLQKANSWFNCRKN
Method: (§1) Certain of the compounds prepared in the manner described in Examples 1 to 223 were tested for activity by an in vitro assay. Following the procedures of Knight et al., FEBS Lett. 296(3):263 (1992). Briefly, 4-aminophenylmercuric acetate (APMA) or trypsin activated MMPs were incubated with various concentrations of the inhibitor compound at room temperature for 5 minutes (0.02% 2-mercapto-ethanol added to buffer for thiol compounds with 5 minutes or overnight incubation). More specifically, recombinant human MMP-13 and MMP-1 enzymes were prepared in laboratories of the inventors' employer. MMP-13 was expressed in baculovirus as a proenzyme, and purified first over a heparin agarose column and then over a chelating zinc chloride column. The proenzyme was activated by APMA for use in the assay. MMP-1 expressed in transfected HT-1080 was provided by Dr. Howard Welgus of Washington University, St. Louis, Mo. The enzyme was also activated using APMA and was then purified over a hydroxamic acid column.
(§2) The enzyme substrate is a methoxycoumarin-containing polypeptide having the following sequence:
(§3) MCA-ProLeuGlyLeuDpaAlaArgNH^2, wherein MCA is methoxycoumarin and Dpa is 3-(2,4-dinitrophenyl)-L-2,3-diaminopropionyl alanine. This substrate is commercially available from Baychem as product M-1895.
(§4) The buffer used for assays contained 100 mM Tris-HCl, 100 mM NaCl, 10 mM CaCl2 and 0.05 percent polyethyleneglycol(23) lauryl ether at a pH value of 7.5. Assays were carried out at room temperature, and dimethyl sulfoxide (DMSO) at a final concentration of 1 percent was used to dissolve inhibitor compound.
(§5) The assayed inhibitor compound in DMSO/buffer solution was compared to an equal amount of DMSO/buffer with no inhibitor as control using microfluor™ white plates (Dynatech). The inhibitor or control solution was maintained in the plate for 10 minutes and the substrate was added to provide a final concentration of 4 uM.
(§6) In the absence of inhibitor activity, a fluorogenic peptide is cleaved at the gly-leu peptide bond, separating the highly fluorogenic peptide from a 2.4-dinitrophenyl quencher, resulting in an increase of fluorescence intensity (excitation at 328 nm/emmision at 415 nm). Inhibition was measured as a reduction in fluorescent intensity as a function of inhibitor concentration, using a Perkin Elmer L550 plate reader. The IC50 values were calculated from those values. The results are set forth in the Inhibition Table below, reported in terms of IC50 to three significant figures.

[2] = biological target: T2, recombinant human MMP-13 (Homo sapiens, UniProt P45452); assay: In vitro metalloprotease inhibition, fluorogenic peptide assay (MMP-13); assay type: biochemical
T2 construct: made in house
Method: as §1, §2, §3, §4, §5, §6

[3] = recombinant human MMP-13, APMA activated, fluorogenic MCA peptide substrate 4 uM, pH 7.5, room temperature

Compound	IC50 [1] [nM]	IC50 [2, 3] [nM]	IC50 ([2]; in vitro, recombinant human MMP-13) [nM]
COc1ccc(S(=O)(=O)N(Cc2ccccc2)C(CS)CC(C)C)cc1 (racemic) [Example 29F, N-[1-(Mercaptomethyl)-3-methylbutyl]-N-(phenylmethyl)-4-methoxybenzenesulfonamide]	8000	1800	–
COc1ccc(S(=O)(=O)N(CCS)Cc2ccccc2)cc1 [Example 7C, N-(2-Mercaptoethyl)-N-(phenylmethyl)-4-methoxybenzenesulfonamide]	4000	300	–
CCCCCN(CCS)S(=O)(=O)c1ccc(OC)cc1 [Example 8, N-(2-Mercaptoethyl)-N-pentyl-4-methoxybenzenesulfonamide]	4200	65	–
COc1ccc(S(=O)(=O)N(C)[C@H](C)CS)cc1 [Example 11D, N-(2-Mercapto-1R-methylethyl)-N-methyl-4-methoxybenzenesulfonamide]	300	32.5	–
COc1ccc(S(=O)(=O)N(Cc2ccccc2)[C@H](C)CS)cc1 [Example 12C, N-(2-Mercapto-1R-methylethyl)-N-(phenylmethyl)-4-methoxybenzenesulfonamide]	1300	38.5	–
COc1ccc(S(=O)(=O)N(CC(C)C)[C@H](C)CS)cc1 [Example 14C, N-(2-Mercapto-1R-methylethyl)-N-(2-methylpropyl)-4-methoxybenzenesulfonamide]	1060	46	–
CCCCOc1ccc(S(=O)(=O)N[C@H](C)CS)cc1 [Example 15, N-(2-Mercapto-1R-methylethyl)-4-(n-butoxy)benzenesulfonamide]	> 10000	75	–
COc1ccc(S(=O)(=O)N[C@H](C)CS)cc1 [Example 16B, N-(2-Mercapto-1R-methylethyl)-4-methoxybenzenesulfonamide]	7000	245	–
CCCCOc1ccc(S(=O)(=O)N(Cc2ccccc2)[C@H](C)CS)cc1 [Example 17C]	> 10000	260	–
CCCCOc1ccc(S(=O)(=O)N(C)[C@H](C)CSSC[C@@H](C)N(C)S(=O)(=O)c2ccc(OCCCC)cc2)cc1 [Example 18]	> 10000	390	–
C[C@H](CS)N(C)S(=O)(=O)c1ccc2c(c1)OCO2 [Example 20C, N-(2-Mercapto-1R-methylethyl)-N-methyl-5-(1,3-benzodioxol-5-yl)sulfonamide]	3000	110	–
C[C@H](CS)N(Cc1ccccc1)S(=O)(=O)c1ccc2c(c1)OCO2 [Example 21C, N-(2-Mercapto-1R-methylethyl)-N-(phenylmethyl)-5-(1,3-benzodioxol-5-yl)sulfonamide]	7000	200	–
CCCCOc1ccc(S(=O)(=O)N(C)[C@H](C)CS)cc1 [Example 22C, N-(2-mercapto-1R-methylethyl)-N-methyl-4-(n-butoxybenzene)sulfonamide]	3400	13	–
COc1ccc(S(=O)(=O)N2CCC(S)C2)cc1 (stereo not shown) [Example 26, 1-[(4-Methoxyphenyl)sulfonyl]-3-mercaptopyrrolidine]	> 10000	250	–
COc1ccc(S(=O)(=O)N2CCCC2CS)cc1 (stereo not shown) [Example 28, 1-[(4-Methoxyphenyl)sulfonyl]pyrrolidine-2-methanethiol]	> 10000	800	–
COc1ccc(S(=O)(=O)N(Cc2ccccc2)[C@@H](CS)C(C)C)cc1 [Example 31D, N-[(1R-Mercaptomethyl)-2-methylpropyl]-4-methoxy-N-(phenylmethyl)benzenesulfonamide]	2500	600	–
COc1ccc(S(=O)(=O)N(Cc2ccccc2)C(CSC(C)=O)C(C)C)cc1 (stereo not shown) [Example 33C]	> 10000	345	–
COc1ccc(S(=O)(=O)N(Cc2ccccc2)[C@H](CS)C(C)C)cc1 [Example 33D, N-[(1S-Mercaptomethyl)-2-methylpropyl]-4-methoxy-N-(phenylmethyl)benzenesulfonamide]	> 10000	> 10000	–
CCCCOc1ccc(S(=O)(=O)N(CCN2CCOCC2)[C@H](C)CS)cc1 [Example 45C, N-(2-Mercapto-1R-methylethyl)-N-[2-(4-morpholino)ethyl]-4-(n-butoxy)benzenesulfonamide]	3200	3	–
N-(2-mercapto-1R-methylethyl)-2-(trifluoromethyoxy)-benzenesulfonamide [Example 77]	–	> 10000	–
N-(2-mercapto-1R-methylethyl)-4-(n-butyl)benzenesulfonamide [Example 69]	–	175	–

More lines, now with the values ahead:

IC50 [1] [nM]	IC50 [2, 3] [nM]	IC50 ([2]; in vitro, recombinant human MMP-13) [nM]	Compound
2000	67.5	–	COc1ccc(S(=O)(=O)N(Cc2ccccc2)[C@H](C)CS)cc1 (racemic) [Example 56, N-(2-Mercapto-1R,S-methylethyl)-N-phenylmethyl-4-methoxybenzenesulfonamide benzenesulfonamide]
1500	5	–	CCCOc1ccc(S(=O)(=O)N(C)[C@H](C)CS)cc1 [Example 37C, N-(2-Mercapto-1R-methylethyl)-N-methyl-4-(n-propyloxy)benzenesulfonamide]
2500	31	–	CCOc1ccc(S(=O)(=O)N(C)[C@H](C)CS)cc1 [Example 38C, N-(2-Mercapto-1R-methylethyl)-N-methyl-4-ethoxybenzenesulfonamide]
> 10000	21.5	–	CCCCCOc1ccc(S(=O)(=O)N(C)[C@H](C)CS)cc1 [Example 39C, N-(2-Mercapto-1R-methylethyl)-N-methyl-4-(n-pentyloxy)benzenesulfonamide]
309	0.61	–	C[C@H](CS)N(C)S(=O)(=O)c1ccc(Oc2ccccc2)cc1 [Example 40E, N-(2-Mercapto-1R-methylethyl)-N-methyl-4-(phenoxy)benzenesulfonamide]
> 10000	1.8	2	C[C@H](CS)N(C)S(=O)(=O)c1ccc(Sc2ccccc2)cc1 [Example 41C, N-(2-Mercapto-1R-methylethyl)-N-methyl-4-(thiophenyl)benzenesulfonamide]
> 10000	1800	–	C[C@H](CO)N(C)S(=O)(=O)c1ccc(-c2ccccn2)s1 [Example 42D, N-(2-Hydroxy-1R-methylethyl)-N-methyl-2-(pyrid-2-yl)thiophene-5-sulfonamide]
> 10000	400	–	COc1ccc(S(=O)(=O)N(C)Cc2ccccc2S)cc1 [Example 44, N-[(2-Mercaptophenyl)methyl]-N-methyl-4-methoxybenzenesulfonamide]
–	> 10000	–	C[C@H](CS)NS(=O)(=O)c1ccc(CNC(=O)c2ccc(Cl)cc2)s1 [Example 153]
–	464	–	CCc1cc(Br)ccc1S(=O)(=O)N[C@H](C)CS [Example 195]
–	> 10000	–	C[C@H](CS)NS(=O)(=O)c1ccccc1C(F)(F)F [Example 196]
–	2300	–	COC(=O)c1ccccc1S(=O)(=O)N[C@H](C)CS [Example 198]
–	> 10000	–	C[C@H](CS)NS(=O)(=O)c1ccc(Br)cc1OC(F)(F)F [Example 204]
–	> 10000	–	C[C@H](CS)NS(=O)(=O)c1cccc2cccnc12 [Example 206]
–	> 10000	–	CCCCOc1cc(C(C)(C)CC(C)(C)C)ccc1S(=O)(=O)N[C@H](C)CS [Example 207]
–	1320	–	CCCCOc1ccc(S(=O)(=O)N[C@@H](CS)C(=O)O)cc1 [Example 210]
–	> 10000	–	C[C@H](CS)NS(=O)(=O)c1cn(C)cn1 [Example 214]
–	1150	–	N-(2-mercapto-1R-methylethyl)-2-napthylenesulfonamide [Example 83]

From patent publication US6747027B1, “Thiol sulfonamide metalloprotease inhibitors” (Pharmacia Corporation, priority 1996, dated 2004)
